Experimental data taken from BindingDB's records for patent US20240124450 (Pfizer, 2024).

Columns and labels:
Experiment in all cases: Enzyme Assay: Pan SIK MS IC50 Assay
[1] = molecular target: Serine/threonine-protein kinase SIK1 (Homo sapiens, UniProt P57059)
Procedure: (§1) Salt Induced Kinase (SIK) activity is determined by measuring the effect of a test agent on the activity of the appropriate SIK enzyme to phosphorylate its corresponding substrate. […] The phosphorylated substrate product resulting from the kinase reaction is detected by LCMS/MS, and the area under the peak curve correlates with kinase activity. […] The plates are spun at 1000 rpm for 30 seconds to ensure compounds are at the bottom of the well before removing foil covers. 0.15 μL HPE (assay std) and ZPE (DMSO) are added to the ARP using an HP D300 dispenser. Plates are spun again at 1000 rpm for 30 seconds. […] Plates are spun at 1000 rpm for 30 seconds. Plates are then sealed and incubated at RT for 10 minutes. Following incubation, 5 μL of 5× peptide reagent is added with a Multidrop Combi and designated small volume cassette to initiate the kinase reaction. Plates are spun at 1000 rpm for 30 seconds. Plates are then sealed and incubated at RT for 90 minutes. The assay is stopped by the addition of 5 μl of 120 mM EDTA added with a Multidrop Combi and designated small volume cassette (20 mM final concentration). Plates are spun at 1000 rpm for 30 seconds. 10 μl of the final reaction mix from each of the three individual enzyme plates are transferred by a Platemate Plus to the same corresponding 96 well deepwell plate containing 70 μl Water/Methanol (85/15%) for multiplex MS detection ([…]). Using Activity Base (ABase), an idbs data analysis software tool, the reported area ratio unit data is associated to compound, batch and dose information, the data is evaluated for quality, and the percent inhibition of each well is calculated. The data from each Max effect/HPE and Min effect/ZPE control wells are assessed, and outliers are excluded from all further calculations. The mean and standard deviation of the HPE and ZPE are then calculated for each plate, along with the Z Prime. The compound data is converted into % effect, using the average ZPE and HPE controls as 0% and 100% activity, respectively.

[2] = molecular target: Serine/threonine-protein kinase SIK3 (Homo sapiens, UniProt Q9Y2K2)
Procedure: as §1

[3] = molecular target: Serine/threonine-protein kinase SIK2 (Homo sapiens, UniProt Q9H0K1)
Procedure: as §1

Sequence of Serine/threonine-protein kinase SIK1 (P57059 whole entry): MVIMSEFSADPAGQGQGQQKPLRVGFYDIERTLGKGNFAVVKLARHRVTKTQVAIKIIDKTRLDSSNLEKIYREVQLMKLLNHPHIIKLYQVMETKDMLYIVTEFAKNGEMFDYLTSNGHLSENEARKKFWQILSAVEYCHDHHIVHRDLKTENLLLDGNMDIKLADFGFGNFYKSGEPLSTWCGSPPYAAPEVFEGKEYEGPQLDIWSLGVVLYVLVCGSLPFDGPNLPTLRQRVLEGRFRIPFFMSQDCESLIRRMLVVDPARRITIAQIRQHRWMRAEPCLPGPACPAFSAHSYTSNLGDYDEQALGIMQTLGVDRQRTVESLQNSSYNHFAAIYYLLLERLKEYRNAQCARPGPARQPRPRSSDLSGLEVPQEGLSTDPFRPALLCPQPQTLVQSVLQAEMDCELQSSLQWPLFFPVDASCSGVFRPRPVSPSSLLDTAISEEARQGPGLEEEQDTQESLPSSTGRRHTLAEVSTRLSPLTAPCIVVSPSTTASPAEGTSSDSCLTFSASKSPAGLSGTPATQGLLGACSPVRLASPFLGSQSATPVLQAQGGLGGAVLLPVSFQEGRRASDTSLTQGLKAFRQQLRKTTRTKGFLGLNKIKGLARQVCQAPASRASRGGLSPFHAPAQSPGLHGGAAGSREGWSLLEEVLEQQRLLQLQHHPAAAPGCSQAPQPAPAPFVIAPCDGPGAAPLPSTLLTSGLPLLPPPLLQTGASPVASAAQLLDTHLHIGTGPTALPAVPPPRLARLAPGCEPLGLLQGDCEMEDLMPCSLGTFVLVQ
Sequence of Serine/threonine-protein kinase SIK3 (Q9Y2K2 whole entry): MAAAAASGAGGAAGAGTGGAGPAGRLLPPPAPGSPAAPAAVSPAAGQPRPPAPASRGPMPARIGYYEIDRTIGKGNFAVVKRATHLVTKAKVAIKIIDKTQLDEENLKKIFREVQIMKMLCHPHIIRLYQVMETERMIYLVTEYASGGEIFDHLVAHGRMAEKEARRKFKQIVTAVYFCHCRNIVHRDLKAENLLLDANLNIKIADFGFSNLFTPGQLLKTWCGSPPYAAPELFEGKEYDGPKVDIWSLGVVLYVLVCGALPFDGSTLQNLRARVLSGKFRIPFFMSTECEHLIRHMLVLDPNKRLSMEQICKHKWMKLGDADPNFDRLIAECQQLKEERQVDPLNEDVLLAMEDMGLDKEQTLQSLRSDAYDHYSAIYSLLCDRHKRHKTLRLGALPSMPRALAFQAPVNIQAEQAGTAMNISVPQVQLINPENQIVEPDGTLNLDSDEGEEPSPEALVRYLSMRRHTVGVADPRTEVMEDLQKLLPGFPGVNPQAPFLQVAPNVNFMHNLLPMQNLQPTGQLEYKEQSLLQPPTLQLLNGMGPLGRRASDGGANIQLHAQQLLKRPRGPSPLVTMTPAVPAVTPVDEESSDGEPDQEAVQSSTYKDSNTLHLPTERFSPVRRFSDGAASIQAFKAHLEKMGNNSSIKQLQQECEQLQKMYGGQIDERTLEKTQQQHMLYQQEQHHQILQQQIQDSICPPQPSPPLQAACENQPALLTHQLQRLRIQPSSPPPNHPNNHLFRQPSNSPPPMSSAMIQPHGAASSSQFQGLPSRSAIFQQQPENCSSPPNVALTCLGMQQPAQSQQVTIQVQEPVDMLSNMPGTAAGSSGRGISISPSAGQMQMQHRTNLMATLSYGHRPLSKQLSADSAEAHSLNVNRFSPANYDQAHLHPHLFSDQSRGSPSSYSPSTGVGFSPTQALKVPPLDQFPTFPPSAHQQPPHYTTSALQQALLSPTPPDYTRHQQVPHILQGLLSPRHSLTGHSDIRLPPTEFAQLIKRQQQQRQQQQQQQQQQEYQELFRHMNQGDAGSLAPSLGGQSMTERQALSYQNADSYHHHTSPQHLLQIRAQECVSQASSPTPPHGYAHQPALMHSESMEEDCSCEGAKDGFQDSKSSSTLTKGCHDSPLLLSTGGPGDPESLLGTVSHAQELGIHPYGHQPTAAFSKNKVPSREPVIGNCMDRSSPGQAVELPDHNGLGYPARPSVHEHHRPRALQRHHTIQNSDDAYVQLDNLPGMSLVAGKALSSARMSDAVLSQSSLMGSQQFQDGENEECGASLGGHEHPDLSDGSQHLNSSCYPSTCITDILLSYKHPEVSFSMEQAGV
Sequence of Serine/threonine-protein kinase SIK2 (Q9H0K1 whole entry): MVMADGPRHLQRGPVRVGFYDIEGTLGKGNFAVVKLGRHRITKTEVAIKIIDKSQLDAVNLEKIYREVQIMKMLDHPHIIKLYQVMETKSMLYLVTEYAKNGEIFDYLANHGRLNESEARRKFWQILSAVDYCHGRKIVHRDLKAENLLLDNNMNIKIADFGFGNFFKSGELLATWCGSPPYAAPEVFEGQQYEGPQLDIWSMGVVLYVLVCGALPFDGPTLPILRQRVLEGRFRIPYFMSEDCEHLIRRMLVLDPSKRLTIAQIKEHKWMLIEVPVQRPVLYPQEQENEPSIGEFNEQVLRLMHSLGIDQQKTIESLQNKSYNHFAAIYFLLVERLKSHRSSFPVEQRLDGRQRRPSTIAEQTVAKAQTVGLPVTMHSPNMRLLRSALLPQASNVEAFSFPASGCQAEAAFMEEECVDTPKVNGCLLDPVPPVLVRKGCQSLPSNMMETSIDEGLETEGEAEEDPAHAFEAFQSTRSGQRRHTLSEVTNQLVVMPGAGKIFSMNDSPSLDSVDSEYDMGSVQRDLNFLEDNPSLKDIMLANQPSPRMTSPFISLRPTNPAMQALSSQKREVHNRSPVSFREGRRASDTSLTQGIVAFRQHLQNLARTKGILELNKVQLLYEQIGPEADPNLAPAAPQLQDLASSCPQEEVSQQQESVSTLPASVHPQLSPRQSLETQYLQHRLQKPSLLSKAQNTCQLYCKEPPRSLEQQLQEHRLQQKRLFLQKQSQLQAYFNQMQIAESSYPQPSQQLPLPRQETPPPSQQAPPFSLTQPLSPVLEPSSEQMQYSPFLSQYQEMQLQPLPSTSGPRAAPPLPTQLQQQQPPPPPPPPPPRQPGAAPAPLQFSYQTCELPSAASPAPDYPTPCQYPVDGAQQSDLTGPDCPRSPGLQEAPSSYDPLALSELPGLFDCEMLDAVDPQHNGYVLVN

IC50 [1] [nM] | IC50 [2] [nM] | IC50 [3] [nM] | Structure (SMILES)
0.9 | 2 | – | CC[C@@H]1CCC[C@@]1(N)COc1cc(-c2cnc3cccc(OC)n23)cc(SC)c1C#N (mixture of isomers) [US20240124450, Example 9]
2.4 | 4.8 | 1.8 | CSc1cc(-c2cnc3cccc(C#N)n23)cc(OC[C@@]2(N)CCC(F)(F)C2)c1C#N (mixture of isomers) [US20240124450, Example 12]
0.8 | 1.7 | – | CC[C@@H]1CCC[C@](N)(COc2cc(-c3cnc4cccc(OC)n34)cc(OC)c2C#N)C1 [US20240124450, Example 16]
